Structures are written as SMILES.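 Five compound concentrations were applied to cells in 96-well plates for 48 hours; endpoints were derived by simple linear interpolation of the resulting dose-response curve. Here, GI50 denotes the concentration required for 50% inhibition of growth. TGI: total growth inhibition.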

This is an account of results in PubChem BioAssay (NCI).

What all share (experiment): NCI-60 cell line screen, 48 h
In assay [1] the test system is ACHN renal.
Assay [2] has as its system CAKI-1 renal.
Assay [3] concerns HS 578T breast.
The subject of assay [4] is IGROV1 ovarian.
Assay [5] concerns KM12 colon.
Assay [6] relates to MDA-MB-435.
The subject of assay [7] is OVCAR-5 ovarian.
The test system of assay [8] is RXF 393 renal.
Assay [9] deals with SR leukemia.
Assay [10] deals with EKVX NSCLC.

As to `COC(=O)[C@H](Cc1cnc[nH]1)NC(=O)[C@@H](NC(=O)Nc1cc(C(F)(F)F)cc(C(F)(F)F)c1)C(C)C`, the GI50 in [1] was 17.2 µM; in assay [2] it was 15.9 µM; in [3] it was 16.8 µM; in assay [4] it was 18.1 µM; in assay [5] it was 18.4 µM; in [6], 17.3 µM. Further, the GI50 in assay [7] was 16.5 µM; in assay [8], 13.6 µM; in assay [9] it was 13.2 µM. The TGI in assay [1] is 33.4 µM; in assay [2], 32.7 µM; in assay [3], 47.6 µM; in [4], 36.1 µM; in [5] it was 35.3 µM; in assay [6], 34.3 µM. Also, the values for the TGI in [7], in assay [8] and in assay [9] were 31.1 µM, 27.5 µM and 32.8 µM, respectively.
With `COCc1c(-c2cc3cc(C)cc(OC)c3s2)c2c(N)ncnn2c1CN1CCNC(=O)C1`, the GI50 in assay [1] is 4.31 µM; in assay [2], 4.88 µM; in assay [10], 2.67 µM; in assay [3], 1.84 µM; in [4] it was 3.39 µM; in [5], 5.62 µM. Moreover, the GI50 in [6] was 4.29 µM; in assay [7], 4.11 µM; in [9] it was 3.81 µM. The TGI was 55.5 µM in [1]; 44.2 µM in assay [2]; 29.8 µM in assay [10]; 13.7 µM in assay [3]; above 100 µM in assay [4]; 77.6 µM in [5]. In addition, the TGI in assay [6] is 24 µM; in [7] it was 77 µM; in assay [9] it was 40.5 µM.
`Cc1csc2[n+]1-c1ccccc1N(C(=O)Nc1ccccc1)C(C)C2` (stereo not given): the GI50 was 55.5 µM in [1]; 84.9 µM in [2]; above 100 µM in assay [10]; above 100 µM in assay [3]; 80.7 µM in assay [4]; above 100 µM in assay [5]. The GI50 in [6] was above 100 µM; in assay [7], 28.6 µM; in [8], 50.8 µM. Besides, the TGI in assay [1], in assay [2], in [10], in assay [3], in assay [4] and in assay [5] was above 100 µM throughout. Besides, the TGI in assay [6] is above 100 µM; in [7], 99.5 µM; in [8], above 100 µM.
Consider `O=C(CCCN1CCC(O)(c2ccc(Cl)cc2)CC1)c1ccc(F)cc1`, for which the TGI was above 100 µM in assay [1]; 23.4 µM in assay [2]; above 100 µM in assay [10]; 65.9 µM in assay [3]; above 100 µM in assay [4]; 39.1 µM in assay [5]. Further, the TGI is 33.7 µM in assay [6], above 100 µM in assay [7] and above 100 µM in assay [9].
As for `Cc1ccc(/C=N/Nc2nc(Nc3ccccc3)nc(-n3nc(C)cc3C)n2)cc1`, the GI50 in assay [1] is 4.44 µM; in assay [2], 2.56 µM; in assay [10], 3 µM; in [3] it was 5.03 µM; in [4], 4.99 µM; in assay [5] it was 3.28 µM. The GI50 in assay [6] was 4.84 µM; in [7] it was 15.4 µM; in [9], 3.31 µM. In addition, the TGI was found to be 56.6 µM in assay [1]; 9.45 µM in assay [2]; 31.5 µM in assay [10]; 56.5 µM in assay [3]; 44.8 µM in assay [4]; 13.1 µM in assay [5]. The TGI is 37.6 µM in assay [6], above 100 µM in assay [7] and above 100 µM in assay [9].
Consider `COc1ccc2c(c1)c(-c1nc(-c3c[nH]c4ccncc34)cs1)cn2C`, for which the GI50 in assay [1] was 1.77 µM; in [2], 1.64 µM; in [10] it was 1.76 µM; in assay [3] it was 2.03 µM; in [4], 1.91 µM; in assay [5] it was 1.73 µM. The GI50 was 1.59 µM in assay [6], 1.64 µM in assay [7] and 1.49 µM in assay [8]. In addition, the TGI in assay [1] was found to be 3.17 µM; in assay [2], 3.03 µM; in assay [10], 3.4 µM; in [3], 4.02 µM; in [4] it was 3.54 µM; in [5], 3.2 µM. Besides, the figures for the TGI in [6], in assay [7] and in assay [8] were 2.96 µM, 3.06 µM and 2.88 µM, respectively.
Regarding `COC(=O)c1ccc(CN2C(=O)C(Cl)=C(Nc3cccc(Cl)c3C)C2=O)cc1`, the GI50 is 33.7 µM in [1]; 26.5 µM in assay [2]; 46.8 µM in assay [10]; 21 µM in assay [3]; 2.76 µM in assay [4]; 4.03 µM in assay [5]. Further, the results for the GI50 in assay [6], in assay [7] and in [8] were 7.89 µM, 58.1 µM and 33.7 µM, respectively. In addition, the TGI in [1] was 90.4 µM; in assay [2], 71.6 µM; in [10] it was above 100 µM; in assay [3], 95.5 µM; in assay [4], 18.5 µM; in assay [5], above 100 µM. In addition, the TGI in assay [6] was 37.9 µM; in assay [7] it was above 100 µM; in assay [8], above 100 µM.
As to `CC1=C(SCCC(=O)OC(C[Se]C2=C(C)C(=O)c3ccccc3C2=O)C(=O)NCCCCCC(=O)OCc2ccccc2)C(=O)c2ccccc2C1=O` (stereo not given), the GI50 in assay [1] is 12.1 µM; in [2] it was 6.89 µM; in assay [10], 3.62 µM; in [3] it was 7.6 µM; in assay [4], 2.13 µM; in [5], 1.4 µM. Besides, the GI50 is 2.13 µM in assay [6], 5.05 µM in [7] and 14.9 µM in assay [8]. In addition, the TGI in [1] was 27.6 µM; in assay [2] it was 21.3 µM; in assay [10], 17.8 µM; in assay [3], above 100 µM; in assay [4], 14.5 µM; in assay [5], 4.07 µM. Also, the TGI in [6] stood at 13 µM; in [7], 18.7 µM; in assay [8], 28.3 µM.
